One data set deals with T1, biotinylated TNF (Homo sapiens, UniProt P01375).
T1 construct: purchased R&D Systems NFTAO
In words: Flow cytometry: binding of biotinylated TNF to Raw 264.7 cells. It is filed as cell-based, mouse. The settings on record: compound 800, 200, 5 μM, FACS, FIG. 3a. On the procedure:
First, macrophage Raw 264.7 cells were prepared (4×10^6 cells/ml), and the biotinylated TNF alone or in combination with the 4-benzopyranone derivative compound (800, 200, 5 μM) was added to the cells and reacted (30 min, 4° C.). 10 μl of avidin-FITC reagent was then added and reacted in the dark (30 min, 4° C.). After washing with RDF1 buffer, FACS analysis was carried out (BD Canto). Human TNF-alpha Biotinylated Fluorokine Flow Cytometry Kit (Cat #: NFTAO) of R&D Systems was used in the experiment.
(A flow cytometer gives signals particle by particle.)

The target in data set [1] is T2, TNF (Homo sapiens, UniProt P01375). In words: SPR (Biacore T200) direct binding to immobilized TNF. The settings on record: FIG. 2d. On the procedure:
The binding kinetics of TNF and 4-benzopyranone derivative compounds was measured by Surface Plasmon Resonance (SPR) method. First, based on the results of pH scouting (10 mM acetate buffer, pH 4.0, 4.5, 5.0, and 5.5), the appropriate buffer pH was determined, and then the recombinant TNF was immobilized on the CM5 chip (4000-5000 RU). In order to correct an effect of DMSO, a solvent correction standard was then prepared, and DMSO was added to the HBS-EP+ buffer (GE) in an amount of 5%. Then, the 4-benzopyranone derivative compounds were prepared depending on concentration, flowed into the chip (20 μl/min, 500 s), and dissolved (500 s), and the results of sensorgram were analyzed by a dedicated program to determine the affinity value (KD). At this time, the running buffer was HBS-EP+ buffer (GE), the regeneration buffer was 10 mM glycine (pH 2.5), and Biacore T200 (GE) was used as an analyzer.

The target of data set [2] is T2, TNF. In words: TNF-neutralization bioassay: TNF-induced cell death of LM cells (MTT). It is filed as cell-based. The settings on record: for inhibition at 50 µM: compound 50 μM, TNF 20 ng/ml, actinomycin D, LM cells, 24 hours; for IC50: inhibition of TNF-induced LM cell death. The procedure: (§1) First, the addition of recombinant TNF to mouse fibroblast LM cells induces cell death, and thus, by using the same, the TNF-neutralization bioassay was constructed. In other words, LM cells were pretreated with TNF (20 ng/ml) and the compounds synthesized in the above examples at various concentrations (5×10^4 cells/well), and a sensitizer actinomycin D ([…]) was added, and cultured in a CO2 incubator for 24 hours, and then the MTT assay was carried out. At this time, 10 μl of MTT (5 mg/ml stock) was added, reacted for 4 hours, and then dissolved in DMSO to measure the absorbance at 570 nm. First, the TNF cell death inhibition/neutralization action of TNF-target expected compounds at single concentration (50 or 10 μM) was measured. Second, IC50 values were determined by treating with the compounds having an excellent effect at different concentrations. The % inhibition of TNF was calculated using the following formula: % inhibition of TNF=(OD value of a group treated with TNF and compound−OD value of TNF treated group/(OD value of TNF untreated group−OD value of TNF treated group)×100.
(§2) IC50 values were statistically analyzed using Prism 6 (GraphPad) (IC50: 50% inhibitory concentration, CC50: 50% cytotoxic concentration).

A short description of data set [3]: Cytotoxicity (CC50) in LM cells, MTT assay. The settings on record: mouse, LM cells (mouse fibroblasts); 50% cytotoxic concentration. The data set is classed as cell-based. On the procedure:
as §1, §2
On the technique in general: Formazan colour is commonly taken as a measure of viable cells.

The next data set concerns DBA/1 mice. In words: CIA mouse model, alone and in combination with methotrexate. It is filed as in vivo. The settings on record: Example 61 10 mpk PO once a day, MTX 5 mpk three times a week, to Day 73. From the text:
A 1:1 mixture of collagen type 2 and CFA was intradermally (ID) injected into the base of the tail of DBA/1 mice. Two weeks after the primary immunization, a 1:1 mixture of bovine collagen type 2 and IFA (incomplete Freund's adjuvant) was intradermally (ID) injected into the base of the tail to prepare the rheumatoid arthritis animal model. The thus prepared mice were divided into […], i.e., a positive control group (MTX 5 mpk treated group: 10 mice), a group treated with the compound of Example 61 alone (10 mpk treated group: 9 mice), a group treated with MTX and the compound of Example 61 (each 5 mpk and 10 mpk; 9 mice), and a group treated with vehicle (a group treated with 0.05% CMC diluted in distilled water; 15 mice). […]
The severity of arthritis was determined by ascertaining the mean score of arthritis according to the following standard score in the forefoot and hindfoot twice a week from Day 0 to Day 73 after the primary immunization: 0=normal foot, 1=inflammation and swelling of one toe, 2=inflammation and swelling of more than one toe, but not all of the toes have inflammation and swelling, or weak swelling of all toes, 3=inflammation and swelling of all toes, and 4=severe inflammation and swelling or occlusion of foot.

T2 sequence (P01375 77-233 limits assumed): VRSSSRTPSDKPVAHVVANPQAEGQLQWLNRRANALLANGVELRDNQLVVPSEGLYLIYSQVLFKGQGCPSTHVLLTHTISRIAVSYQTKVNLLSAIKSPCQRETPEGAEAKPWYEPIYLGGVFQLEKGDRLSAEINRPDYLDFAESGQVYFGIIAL
T1 sequence (P01375 77-233 limits assumed): as above

In general, melting point refers to the temperature, or range, at which the solid turns liquid. For orientation: inhibition means the share of the control response that was lost under treatment. High values mean a response far below the control, low ones a response near the control. For `Cc1cccc(-c2oc3ccc(Br)cc3c(=O)c2C(=O)O)c1` [Example 30, 2-(3-methylphenyl)-3-carboxy-6-bromo-(4H)-4-benzopyranone], the melting point was 208 to 210 °C. For the same compound, the “inhibitory activity against TNF-cell binding” value on biotinylated TNF is recorded as “did not inhibit the cell binding of TNF at all”. Further, the “binding to TNF” value at TNF [1] is “did not bind to TNF”. Also, the inhibition at 50 µM against TNF [2] is 7.4%.

As a reminder, the CC50 is the concentration that lowers cell viability or growth by half. A higher CC50 goes with better tolerance by the cells. A word on the IC50: it is the concentration that gives 50% inhibition. Higher therefore signals weaker potency. On to `O=C(O)c1c(-c2cc(F)cc(F)c2)oc2ccc(Br)cc2c1=O` [Example 51, 2-(3,5-difluorophenyl)-3-carboxy-6-bromo-(4H)-4-benzopyranone], for which the melting point was 216 to 218 °C. For the same compound, the “inhibitory activity against TNF-cell binding” value on biotinylated TNF was “moderate inhibitory activity”. For the same compound, in data set [3], the CC50 at 24 h amounted to 13 µM. On TNF [2], this compound returned an inhibition at 50 µM of 100% and an IC50 of 4.5 µM.

For the compound `O=C(O)c1c(-c2cc(F)ccc2F)oc2ccc(Cl)cc2c1=O` [Example 62, 2-(2,5-difluorophenyl)-3-carboxy-6-chloro-(4H)-4-benzopyranone], the melting point lay within 168 to 170 °C. In addition, in data set [3], it took 17 µM to reach half-maximal cytotoxicity (CC50 at 24 h). Besides, on TNF [2], testing at 50 µM gave an inhibition of 100% and 3.8 µM corresponded to half-maximal inhibition (IC50).

`O=C(O)c1c(-c2cc(F)ccc2F)oc2ccc(Br)cc2c1=O` [Example 63, 2-(2,5-difluorophenyl)-3-carboxy-6-bromo-(4H)-4-benzopyranone]: the melting point fell in the range of 152 to 153 °C. The midpoint of cytotoxicity in data set [3], the CC50 at 24 h, lay at 36 µM. Further, on TNF [2], at 50 µM the inhibition was 100% and 36.9 µM corresponded to half-maximal inhibition (IC50).

In turn, `O=C(O)c1c(-c2ccc(F)c(F)c2)oc2ccc(Cl)cc2c1=O` [Example 67, 2-(3,4-difluorophenyl)-3-carboxy-6-chloro-(4H)-4-benzopyranone] gave a melting point of 195 to 198 °C. The half-maximal cytotoxic concentration (CC50) at 24 h in data set [3] stood at 21 µM. On TNF [2], the inhibition at 50 µM turned out to be 100% and the IC50 was 3.9 µM.

As for `O=C(O)c1c(-c2ccc(Cl)cc2)oc2ccc(Cl)cc2c1=O` [Example 71, 2-(4-chlorophenyl)-3-carboxy-6-chloro-(4H)-4-benzopyranone], the melting point was 227 to 228 °C. Moreover, the midpoint of cytotoxicity in data set [3], the CC50 at 24 h, lay at 36 µM. On TNF [2], this compound yielded an inhibition at 50 µM of 97.9% and an IC50 of 3.3 µM.

`O=C(O)c1c(-c2ccc(Cl)cc2)oc2ccc(Br)cc2c1=O` [Example 72, 2-(4-chlorophenyl)-3-carboxy-6-bromo-(4H)-4-benzopyranone] came in with a melting point of 211 to 213 °C. For the same compound, in data set [3], the CC50 at 24 h is greater than 50 µM. At TNF [2], this compound gave an inhibition at 50 µM of 100% and an IC50 of 20.8 µM.

In turn, `COc1cccc2c(=O)c(C(=O)O)c(-c3ccc(Cl)cc3)oc12` [Example 74, 2-(4-chlorophenyl)-3-carboxy-8-methoxy-(4H)-4-benzopyranone] returned a melting point of 238 to 239 °C. In data set [3], this compound had a CC50 at 24 h greater than 50 µM. At TNF [2], this compound showed an inhibition at 50 µM of 79% and an IC50 of 52.5 µM.

As to `CN(Cc1cnc2nc(N)nc(N)c2n1)c1ccc(C(=O)N[C@@H](CCC(=O)O)C(=O)O)cc1` [MTX, methotrexate, reference compound], the “therapeutic effect on arthritis (mean arthritis score)” value in the data set with DBA/1 mice is “therapeutic effect on arthritis was shown”.

For the origin of these results see patent US11504349B2, “Composition for preventing or treating TNF-related diseases, containing novel derivative as active ingredient, and method for inhibiting TNF activity by using same” (ILAB, priority 2017, dated 2022).
